In patent US4307094A, “Triazolopyridazine derivatives” (Hoffmann-La Roche Inc., priority 1979, dated 1981):

Molecular target: T1, angiotensin converting enzyme (Oryctolagus cuniculus, UniProt P12822)
T1 sequence (P12822 34-1310): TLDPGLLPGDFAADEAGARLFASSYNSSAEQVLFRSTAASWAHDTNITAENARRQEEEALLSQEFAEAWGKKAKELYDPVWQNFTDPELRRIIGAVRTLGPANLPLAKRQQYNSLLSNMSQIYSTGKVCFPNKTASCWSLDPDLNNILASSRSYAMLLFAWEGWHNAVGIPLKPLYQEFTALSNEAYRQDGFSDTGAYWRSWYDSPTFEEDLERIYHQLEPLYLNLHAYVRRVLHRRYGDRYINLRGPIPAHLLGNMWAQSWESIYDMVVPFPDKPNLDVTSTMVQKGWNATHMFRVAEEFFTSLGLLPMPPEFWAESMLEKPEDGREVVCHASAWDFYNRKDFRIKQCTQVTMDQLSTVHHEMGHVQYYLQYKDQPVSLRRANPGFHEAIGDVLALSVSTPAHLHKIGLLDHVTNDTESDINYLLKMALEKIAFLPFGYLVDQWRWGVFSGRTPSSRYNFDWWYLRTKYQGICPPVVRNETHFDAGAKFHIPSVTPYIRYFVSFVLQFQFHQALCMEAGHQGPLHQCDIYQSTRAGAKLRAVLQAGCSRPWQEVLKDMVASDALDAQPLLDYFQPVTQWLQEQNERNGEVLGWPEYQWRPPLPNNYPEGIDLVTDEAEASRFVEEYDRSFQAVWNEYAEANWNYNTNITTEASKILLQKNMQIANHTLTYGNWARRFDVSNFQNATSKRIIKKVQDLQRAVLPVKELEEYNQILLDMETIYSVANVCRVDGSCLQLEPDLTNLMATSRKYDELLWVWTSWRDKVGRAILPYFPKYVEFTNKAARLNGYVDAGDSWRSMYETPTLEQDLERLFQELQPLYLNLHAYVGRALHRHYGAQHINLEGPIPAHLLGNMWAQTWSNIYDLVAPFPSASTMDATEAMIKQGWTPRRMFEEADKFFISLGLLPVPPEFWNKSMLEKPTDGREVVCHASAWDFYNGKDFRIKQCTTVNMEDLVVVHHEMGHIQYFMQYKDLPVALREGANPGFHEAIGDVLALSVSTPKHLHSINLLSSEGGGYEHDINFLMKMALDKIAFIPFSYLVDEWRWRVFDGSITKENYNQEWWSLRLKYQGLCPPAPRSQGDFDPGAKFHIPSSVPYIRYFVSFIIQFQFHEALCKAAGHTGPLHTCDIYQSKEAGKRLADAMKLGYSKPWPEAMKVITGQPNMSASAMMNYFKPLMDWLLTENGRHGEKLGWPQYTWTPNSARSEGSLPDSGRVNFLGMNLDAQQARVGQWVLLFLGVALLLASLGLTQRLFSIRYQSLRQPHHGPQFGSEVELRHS
Test: inhibition of angiotensin converting enzyme in vitro (cleavage of hippuryl-histidyl-leucine)
Assay type: biochemical
Details: substrate hippuryl-histidyl-leucine 2 mM, potassium phosphate buffer pH 8.3 (100 mM), NaCl 300 mM, 25 minutes, 37° C.
Method: The activity of the present triazolopyridazine derivatives in inhibiting angiotensin converting enzyme in vitro can be determined by the following test.
The method used is based on the method of Cushman and Cheung (Biochem. Pharmacol., 20, 1637-1648) incorporating the modifications introduced by Hayakari et al. (Anal. Biochem., 84, 361-369). The substrate (hippuryl-histidyl-leucine, 2 mM) is incubated with angiotensin converting enzyme in the presence or absence of various concentrations of test substance in potassium phosphate buffer (pH 8.3; 100 mM) containing sodium chloride (300 mM) for 25 minutes at 37° C. (total […] 500 μl). The reaction is terminated by the addition of 3 ml of potassium phosphate buffer (pH 8.3; 200 mM) at 0° C. 2,4,6-trichloro-s-triazine (3%) in 1.5 ml of dioxan is added, and the mixture is agitated until the yellow chromophore has developed fully. The samples are then centrifuged to remove any precipitate which has formed. The yellow chromophore formed by the reaction of the 2,4,6-trichloro-s-triazine with free hippuric acid is measured spectrophotometrically at 382 nm. IC50 values are defined as the concentration of test substance which reduces by 50% the cleavage of hippuryl-histidyl-leucine by angiotensin converting enzyme under the aforementioned conditions.

Row | SMILES | IC50 [µM]
1 | O=C(O)C1C=CCn2c(=O)n(CCS)c(=O)n21 (stereo not shown) [Compound D, 2,3,5,8-tetrahydro-2-(2-mercaptoethyl)-1,3-dioxo-1H-1,2,4-triazolo[1,2-a]pyridazine-5-carboxylic acid] | 0.48
2 | NC(=O)CCn1c(=O)n2n(c1=O)C(C(=O)O)C=CC2 (stereo not shown) [Compound B, 2-(2-carbamoylethyl)-2,3,5,8-tetrahydro-1,3-dioxo-1H-1,2,4-triazolo[1,2-a]-pyridazine-5-carboxylic acid] | 65
3 | O=C(O)CCn1c(=O)n2n(c1=O)C(C(=O)O)C=CC2 (stereo not shown) [Compound A, 5-carboxy-2,3,5,8-tetrahydro-1,3-dioxo-1H-1,2,4-triazolo[1,2-a]pyridazine-2-propionic acid] | 18
4 | O=C(CCn1c(=O)n2n(c1=O)C(C(=O)O)C=CC2)NO (stereo not shown) [Compound C, 2-[2-(N-hydroxycarbamoyl)ethyl]-2,3,5,8-tetrahydro-1,3-dioxo-1H-1,2,4-triazolo[1,2-a]pyridazine-5-carboxylic acid] | 3.3
